From patent US9217014B2, “Antifungal agents and uses thereof” (Cidara Therapeutics, Inc., priority 2011, dated 2015)
Read-outs that look alike come from different tables or passages of the source.

Test system: C. albicans R303
Assay: mouse candidiasis infection model, IP administration, kidney fungal burden
Assay type: in vivo
Conditions: for log reduction at 0.5 mg/kg / log reduction at 1.5 mg/kg / log reduction at 4.5 mg/kg / log reduction at 5 mg/kg: Candida albicans, R303, ip, 24 h, read-out: Difference from 24-h control; for Mean log10 CFU/kidneys (±SEM) / Mean log10 CFU/kidneys (±SD): kidneys 24 h after infection; for overall performance in reducing C. albicans CFUs in the kidneys of the mice: conclusion over all runs; for log reduction at 5 mg/kg / Mean log10 CFU/kidneys (±SD): First run, IP 5 mg/kg; for Mean log10 CFU/kidneys (±SD): neutropenic mice
Procedure: The objective of these studies was to evaluate the efficacy of test compounds in the mouse candidiasis infection model. Amounts of test articles are uncorrected.
The strain, C. albicans R303 was transferred from frozen storage onto Sabauroud dextrose agar (SDA) plates and grown for ˜24 hr at 35° C. The inoculum was prepared by transferring colonies from the plate to phosphate buffered saline (PBS) and the concentration adjusted to approximately 10^6 CFU/mL with the aid of a spectrophotometer. The stock was diluted 1:9 to prepare the inoculum. Prior to each run the concentration was verified using the dilution plate count method.
Female CD-1 mice were used in this study. The animals were approximately seven-weeks-old at the start of the study and weighed about 15-30 g.
Mice were made neutropenic with IP injections of cyclophosphamide (150 mg/kg in 10 mL/kg) at 4 and 1 day before inoculation. Each animal was inoculated with the appropriate concentration by injecting 0.1 mL of inoculum into a tail vein. The test compounds were administered IP at 2 hr after infection.
In a typical procedure, the kidneys were collected from four mice in control group 1 (untreated) at 2 hr after infection, and from another four mice in control group 2 (untreated) at 24 hr after infection. Kidneys were removed aseptically from each mouse and were combined in a sterile tube. An aliquot (2 mL) of sterile PBS was added to each tube and the contents homogenized with a tissue homogenizer (Polytron 3100). Serial dilutions of the tissue homogenates were conducted and 0.1 mL aliquots were spread on SDA plates and the plates incubated at 35° C. overnight. The CFU/kidneys were determined from colony counts. Data were analyzed using one-way ANOVA with either the Tukey-Kramer Multiple Comparisons Test or Dunnett Test (GraphPad InStat version 3.06, GraphPad Software, San Diego, Calif.).
The data reported below are the average of four mice. Each run included a separate control and each is tabulated separately.

Compound | log reduction at 0.5 mg/kg (Third run, IP 0.5 mg/kg) | log reduction at 1.5 mg/kg (Third run, IP 1.5 mg/kg) | log reduction at 4.5 mg/kg (Third run, IP 4.5 mg/kg) | Mean log10 CFU/kidneys (±SEM) (Third run, IP 0.5 mg/kg) [log10 CFU/kidneys] | Mean log10 CFU/kidneys (±SEM) (Third run, IP 1.5 mg/kg) [log10 CFU/kidneys] | Mean log10 CFU/kidneys (±SEM) (Third run, IP 4.5 mg/kg) [log10 CFU/kidneys] | overall performance in reducing C. albicans CFUs in the kidneys of the mice | log reduction at 0.5 mg/kg (Fourth run, IP 0.5 mg/kg) | log reduction at 1.5 mg/kg (Fourth run, IP 1.5 mg/kg) | Mean log10 CFU/kidneys (±SEM) (Fourth run, IP 0.5 mg/kg) [log10 CFU/kidneys] | Mean log10 CFU/kidneys (±SEM) (Fourth run, IP 1.5 mg/kg) [log10 CFU/kidneys] | further results
CCC(C)CC(C)CCCCCCCCC(=O)N[C@H]1C[C@@H](O)C(NCCOCCOCCN)NC(=O)C2[C@@H](O)CCN2C(=O)C([C@H](O)CCN)NC(=O)C([C@H](O)[C@@H](O)c2ccc(O)cc2)NC(=O)C2C[C@@H](O)CC2C(=O)C([C@@H](C)O)NC1=O (stereo partly drawn) [compound 19] | 2.19 | 3.47 | 4.03 | 3.01 ± 0.07 | 1.74 ± 0.18 | 1.17 ± 0.40 | performed strongly | – | – | – | – | –
CCCCCOc1ccc(-c2ccc(-c3ccc(C(=O)N[C@H]4C[C@@H](O)C(NCCOCCOCCN)NC(=O)C5[C@@H](O)[C@@H](C)CN5C(=O)C([C@@H](C)O)NC(=O)C([C@H](O)[C@@H](O)c5ccc(O)cc5)NC(=O)C5C[C@@H](O)CC5C(=O)C([C@@H](C)O)NC4=O)cc3)cc2)cc1 (stereo partly drawn) [compound 13] | – | – | – | – | – | – | performed moderately | 2.29 | 2.8 | 2.81 ± 0.23 | 2.31 ± 0.19 | –
CCCCCOc1ccc(-c2ccc(-c3ccc(C(=O)N[C@H]4C[C@@H](O)C(NCCOCCOCCOCCN)NC(=O)C5[C@@H](O)[C@@H](C)CN5C(=O)C([C@@H](C)O)NC(=O)C([C@H](O)[C@@H](O)c5ccc(O)cc5)NC(=O)C5C[C@@H](O)CC5C(=O)C([C@@H](C)O)NC4=O)cc3)cc2)cc1 (stereo partly drawn) [compound 14] | – | – | – | – | – | – | performed poorly | 0.37 | 0.31 | 4.74 ± 0.17 | 4.80 ± 0.34 | –
CCCCCOc1ccc(-c2ccc(-c3ccc(C(=O)N[C@H]4C[C@@H](O)C(OCCNC)NC(=O)C5[C@@H](O)[C@@H](C)CN5C(=O)C([C@@H](C)O)NC(=O)C([C@H](O)[C@@H](O)c5ccc(O)cc5)NC(=O)C5C[C@@H](O)CN5C(=O)C([C@@H](C)O)NC4=O)cc3)cc2)cc1 (stereo partly drawn) [compound 3] | – | – | – | – | – | – | performed moderately | – | – | – | – | log reduction at 5 mg/kg: 3.63; Mean log10 CFU/kidneys (±SD): 1.57 ± 0.20 log10 CFU/kidneys
CCC(C)CC(C)CCCCCCCCC(=O)N[C@H]1C[C@@H](O)C(NCCNCCN)NC(=O)C2[C@@H](O)CCN2C(=O)C([C@H](O)CCN)NC(=O)C([C@H](O)[C@@H](O)c2ccc(O)cc2)NC(=O)C2C[C@@H](O)CC2C(=O)C([C@@H](C)O)NC1=O (stereo partly drawn) [compound 22] | 3.56 | 5.2 | 4.55 | 1.65 ± 0.16 | 0.00 ± 0.00 | 0.65 ± 0.38 | performed strongly | – | – | – | – | –
CCCCCOc1ccc(-c2ccc(-c3ccc(C(=O)N[C@H]4C[C@@H](O)C(OCCN)NC(=O)C5[C@@H](O)[C@@H](C)CN5C(=O)C([C@@H](C)O)NC(=O)C([C@H](O)[C@@H](O)c5ccc(O)cc5)NC(=O)C5C[C@@H](O)CN5C(=O)C([C@@H](C)O)NC4=O)cc3)cc2)cc1 (stereo partly drawn) [compound 4] | – | – | – | – | – | – | performed strongly | – | – | – | – | log reduction at 5 mg/kg: 4.47; log reduction at 0.5 mg/kg (Second run, IP 0.5 mg/kg): 1.5; log reduction at 4.5 mg/kg (Second run, IP 4.5 mg/kg): 4.22; Mean log10 CFU/kidneys (±SD): 0.73 ± 0.85 log10 CFU/kidneys; Mean log10 CFU/kidneys (±SEM) (Second run, IP 0.5 mg/kg): 3.38 ± 0.10 log10 CFU/kidneys; Mean log10 CFU/kidneys (±SEM) (Second run, IP 1.5 mg/kg): 0.65 ± 0.38 log10 CFU/kidneys; Mean log10 CFU/kidneys (±SEM) (Second run, IP 4.5 mg/kg): 0.65 ± 0.38 log10 CFU/kidneys
CC[C@H](C)C[C@H](C)CCCCCCCCC(=O)N[C@H]1C[C@@H](O)[C@@H](NCCN)NC(=O)[C@@H]2[C@@H](O)CCN2C(=O)[C@H]([C@H](O)CCN)NC(=O)[C@H]([C@H](O)[C@@H](O)c2ccc(O)cc2)NC(=O)[C@@H]2C[C@@H](O)CN2C(=O)[C@H]([C@@H](C)O)NC1=O [caspofungin, reference compound] | 4.88 | 4.48 | 5.2 | 0.33 ± 0.33 | 0.73 ± 0.42 | 0.00 ± 0.00 | – | – | – | – | – | –
CCCCCOc1ccc(-c2ccc(-c3ccc(C(=O)N[C@H]4C[C@@H](O)C(NCCOCCO)NC(=O)C5[C@@H](O)[C@@H](C)CN5C(=O)C([C@@H](C)O)NC(=O)C([C@H](O)[C@@H](O)c5ccc(O)cc5)NC(=O)C5C[C@@H](O)CN5C(=O)C([C@@H](C)O)NC4=O)cc3)cc2)cc1 (stereo partly drawn) [compound 11] | – | – | – | – | – | – | performed moderately | 0.29 | 2.13 | 4.82 ± 0.20 | 2.98 ± 0.03 | –
CCCCCOc1ccc(-c2ccc(-c3ccc(C(=O)N[C@H]4C[C@@H](O)C(NCCNCCN)NC(=O)C5[C@@H](O)[C@@H](C)CN5C(=O)C([C@@H](C)O)NC(=O)C([C@H](O)[C@@H](O)c5ccc(O)cc5)NC(=O)C5C[C@@H](O)CC5C(=O)C([C@@H](C)O)NC4=O)cc3)cc2)cc1 (stereo partly drawn) [compound 17] | – | – | – | – | – | – | performed strongly | 1.64 | 3.91 | 3.46 ± 0.06 | 1.19 ± 0.12 | –
CCC(C)CC(C)CCCCCCCCC(=O)N[C@H]1C[C@@H](O)C(NCCNCCO)NC(=O)C2[C@@H](O)CCN2C(=O)C([C@H](O)CCN)NC(=O)C([C@H](O)[C@@H](O)c2ccc(O)cc2)NC(=O)C2C[C@@H](O)CC2C(=O)C([C@@H](C)O)NC1=O (stereo partly drawn) [compound 21] | 3.63 | 4.48 | 4.03 | 1.57 ± 0.16 | 0.73 ± 0.42 | 1.17 ± 0.40 | performed strongly | – | – | – | – | –
CCCCCOc1ccc(-c2ccc(-c3ccc(C(=O)N[C@H]4C[C@@H](O)C(OCCN(C)C)NC(=O)C5[C@@H](O)[C@@H](C)CN5C(=O)C([C@@H](C)O)NC(=O)C([C@H](O)[C@@H](O)c5ccc(O)cc5)NC(=O)C5C[C@@H](O)CN5C(=O)C([C@@H](C)O)NC4=O)cc3)cc2)cc1 (stereo partly drawn) [compound 2] | – | – | – | – | – | – | performed moderately | – | – | – | – | log reduction at 5 mg/kg: 3.6; Mean log10 CFU/kidneys (±SD): 1.60 ± 0.35 log10 CFU/kidneys
CCCCCOc1ccc(-c2ccc(-c3ccc(C(=O)N[C@H]4C[C@@H](O)C(NCCOCCN)NC(=O)C5[C@@H](O)[C@@H](C)CN5C(=O)C([C@@H](C)O)NC(=O)C([C@H](O)[C@@H](O)c5ccc(O)cc5)NC(=O)C5C[C@@H](O)CC5C(=O)C([C@@H](C)O)NC4=O)cc3)cc2)cc1 (stereo partly drawn) [compound 12] | – | – | – | – | – | – | performed strongly | 1.9 | 3.5 | 3.20 ± 0.11 | 1.60 ± 0.09 | –
